Our source for the EC50 values is US20260166128A1, “HUMAN AMYLIN ANALOG, AND DERIVATIVE THEREOF AND USE THEREOF” (priority 2022, published 2026).

Numbered stars: 1 amine (or outer) side, 2 acyl side, 3 side chain; on linkers, the order of the positions; unused ones are H or OH. Bridge positions count the residues as written; N and C are the ends. Square brackets hold non-standard residues; d marks the D form. Side chains are listed from the residue outwards. Peptide text beside a SMILES is read from it. * marks the point of attachment. C20 diacid = O=C(O)CCCCCCCCCCCCCCCCCCC(=O)*; γGlu = O=C(O)[C@H](CCC(=O)[*:2])N[*:1]; βAsp = O=C(O)[C@H](CC(=O)[*:2])N[*:1]; Hyp = O=C(O)[C@@H]1C[C@@H](O)CN1; hArg = N=C(N)NCCCC[C@H](N)C(=O)O; AEEA = NCCOCCOCC(=O)O

The assay concerns the target T1, human amylin receptor (Homo sapiens, UniProt O60896+P30988).
T1 construct: host or cells: CHO-K1/Ga15/AMY3 cells, further stably transfected with a CRE-luciferase plasmid
T1 sequence (P30988 25-474): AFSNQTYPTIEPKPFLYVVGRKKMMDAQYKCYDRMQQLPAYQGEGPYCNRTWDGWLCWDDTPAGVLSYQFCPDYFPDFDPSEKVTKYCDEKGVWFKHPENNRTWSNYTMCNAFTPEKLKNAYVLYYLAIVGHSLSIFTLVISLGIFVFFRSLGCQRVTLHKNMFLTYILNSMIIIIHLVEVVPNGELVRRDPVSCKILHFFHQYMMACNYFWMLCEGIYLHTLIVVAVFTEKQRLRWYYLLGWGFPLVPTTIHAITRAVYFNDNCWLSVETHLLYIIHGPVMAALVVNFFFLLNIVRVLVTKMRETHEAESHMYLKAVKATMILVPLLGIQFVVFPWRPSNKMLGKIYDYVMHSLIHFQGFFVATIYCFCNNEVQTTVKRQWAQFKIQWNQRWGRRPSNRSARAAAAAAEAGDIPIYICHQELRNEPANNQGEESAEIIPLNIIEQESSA
T1 sequence (O60896 24-148 partner): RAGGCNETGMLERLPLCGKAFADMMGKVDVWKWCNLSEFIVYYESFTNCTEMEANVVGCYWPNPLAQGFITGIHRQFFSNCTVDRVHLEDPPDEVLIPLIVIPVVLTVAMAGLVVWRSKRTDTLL
Nature of the assay: Luciferase assay of amylin derivatives in amylin receptor/CRE-luc CHO cell line. It counts as cell-based. Particulars: CHO-K1/Ga15/AMY3 CRE-luc cells, 24 hours incubation, F12 medium containing 10% FBS; read-out: EC50.

Description: The experiment was intended to detect the activity or efficacy of the amylin derivatives on a human amylin receptor in vitro by luciferase assay.
50 μL of growth medium (F12 medium containing 10% FBS) was added into each well of a white 96-well plate, and the stably transfected amylin/CRE-lue CHO cells were inoculated into the white 96-well plate at a density of about 20,000 cells/well for activity determination.

As usually defined, the EC50 is the concentration at which the effect is half-maximal. As for `CC[C@H](C)[C@H](NC(=O)[C@@H]1CCCN1C(=O)CNC(=O)[C@H](CC(C)C)NC(=O)[C@H](CC(N)=O)NC(=O)[C@H](CC(N)=O)NC(=O)[C@H](CO)NC(=O)[C@H](CCCCNC(=O)COCCOCCNC(=O)CC[C@H](NC(=O)CCCCCCCCCCCCCCCCCCC(=O)O)C(=O)O)NC(=O)[C@H](Cc1c[nH]cn1)NC(=O)[C@H](CCCNC(=N)N)NC(=O)[C@H](CC(C)C)NC(=O)[C@H](Cc1ccccc1)NC(=O)[C@H](CC(=O)O)NC(=O)[C@H](C)NC(=O)[C@H](CC(C)C)NC(=O)[C@H](CCCNC(=N)N)NC(=O)[C@H](CCC(N)=O)NC(=O)[C@@H](NC(=O)[C@H](C)NC(=O)[C@@H]1CSSC[C@H](NC(=O)[C@@H](N)CCCNC(=N)N)C(=O)N[C@@H](CC(N)=O)C(=O)N[C@@H]([C@@H](C)O)C(=O)N[C@@H](C)C(=O)N[C@@H]([C@@H](C)O)C(=O)N1)[C@@H](C)O)C(=O)N[C@@H](CC(C)C)C(=O)N1CCC[C@H]1C(=O)N1CCC[C@H]1C(=O)N[C@H](C(=O)N[C@@H](CC(N)=O)C(=O)N[C@H](C(=O)NCC(=O)N[C@@H](CO)C(=O)N[C@@H](CC(N)=O)C(=O)N[C@H](C(=O)N1C[C@H](O)C[C@H]1C(N)=O)[C@@H](C)O)C(C)C)[C@@H](C)O` [PD118] (H-RCNTATCATQRLADFLRHK([AEEA-γGlu-C20 diacid])SNNLGPILPPTNVGSNT[Hyp]-NH2; disulfide 2-7), the EC50 amounted to 0.032 nM. For `CC[C@H](C)[C@H](NC(=O)[C@@H]1CCCN1C(=O)CNC(=O)[C@H](CCCCNC(=O)CC[C@H](NC(=O)CCCCCCCCCCCCCCCCCCC(=O)O)C(=O)O)NC(=O)[C@H](CC(N)=O)NC(=O)[C@H](CC(N)=O)NC(=O)[C@H](CO)NC(=O)[C@H](CO)NC(=O)[C@H](Cc1c[nH]cn1)NC(=O)[C@H](CCCNC(=N)N)NC(=O)[C@H](CC(C)C)NC(=O)[C@H](Cc1ccccc1)NC(=O)[C@H](CC(=O)O)NC(=O)[C@H](C)NC(=O)[C@H](CC(C)C)NC(=O)[C@H](CCCNC(=N)N)NC(=O)[C@H](CCC(N)=O)NC(=O)[C@@H](NC(=O)[C@H](C)NC(=O)[C@@H]1CSSC[C@H](NC(=O)[C@@H](N)CCCNC(=N)N)C(=O)N[C@@H](CC(N)=O)C(=O)N[C@@H]([C@@H](C)O)C(=O)N[C@@H](C)C(=O)N[C@@H]([C@@H](C)O)C(=O)N1)[C@@H](C)O)C(=O)N[C@@H](CC(C)C)C(=O)N1CCC[C@H]1C(=O)N1CCC[C@H]1C(=O)N[C@H](C(=O)N[C@@H](CC(N)=O)C(=O)N[C@H](C(=O)NCC(=O)N[C@@H](CO)C(=O)N[C@@H](CC(N)=O)C(=O)N[C@H](C(=O)N1C[C@H](O)C[C@H]1C(N)=O)[C@@H](C)O)C(C)C)[C@@H](C)O` [PD082] (H-RCNTATCATQRLADFLRHSSNNK([γGlu-C20 diacid])GPILPPTNVGSNT[Hyp]-NH2; disulfide 2-7), the EC50 amounted to 0.038 nM. With `CC[C@H](C)[C@H](NC(=O)[C@@H]1CCCN1C(=O)CNC(=O)[C@H](CCCCNC(=O)COCCOCCNC(=O)CC[C@H](NC(=O)CCCCCCCCCCCCCCCCCCC(=O)O)C(=O)O)NC(=O)[C@H](CC(N)=O)NC(=O)[C@H](CC(N)=O)NC(=O)[C@H](CO)NC(=O)[C@H](CO)NC(=O)[C@H](Cc1c[nH]cn1)NC(=O)[C@H](CCCNC(=N)N)NC(=O)[C@H](CC(C)C)NC(=O)[C@H](Cc1ccccc1)NC(=O)[C@H](CC(=O)O)NC(=O)[C@H](C)NC(=O)[C@H](CC(C)C)NC(=O)[C@H](CCCNC(=N)N)NC(=O)[C@H](CCC(N)=O)NC(=O)[C@@H](NC(=O)[C@H](C)NC(=O)[C@@H]1CSSC[C@H](NC(=O)[C@@H](N)CCCNC(=N)N)C(=O)N[C@@H](CC(N)=O)C(=O)N[C@@H]([C@@H](C)O)C(=O)N[C@@H](C)C(=O)N[C@@H]([C@@H](C)O)C(=O)N1)[C@@H](C)O)C(=O)N[C@@H](CC(C)C)C(=O)N1CCC[C@H]1C(=O)N1CCC[C@H]1C(=O)N[C@H](C(=O)N[C@@H](CC(N)=O)C(=O)N[C@H](C(=O)NCC(=O)N[C@@H](CO)C(=O)N[C@@H](CC(N)=O)C(=O)N[C@H](C(=O)N1C[C@H](O)C[C@H]1C(N)=O)[C@@H](C)O)C(C)C)[C@@H](C)O` [PD110] (H-RCNTATCATQRLADFLRHSSNNK([AEEA-γGlu-C20 diacid])GPILPPTNVGSNT[Hyp]-NH2; disulfide 2-7), the EC50 was determined as 0.039 nM. For `CC[C@H](C)[C@H](NC(=O)[C@@H]1CCCN1C(=O)[C@H](CCCCN)NC(=O)[C@H](CC(C)C)NC(=O)[C@H](CC(N)=O)NC(=O)[C@H](CC(N)=O)NC(=O)[C@H](CO)NC(=O)[C@H](CO)NC(=O)[C@H](Cc1c[nH]cn1)NC(=O)[C@H](CCCNC(=N)N)NC(=O)[C@H](CC(C)C)NC(=O)[C@H](Cc1ccccc1)NC(=O)[C@H](CC(=O)O)NC(=O)[C@H](C)NC(=O)[C@H](CC(C)C)NC(=O)[C@H](CCCNC(=N)N)NC(=O)[C@H](CCC(N)=O)NC(=O)[C@@H](NC(=O)[C@H](C)NC(=O)[C@@H]1CSSC[C@H](NC(=O)[C@H](CCCCN)NC(=O)C[C@H](NC(=O)COCCOCCNC(=O)COCCOCCNC(=O)CCCCCCCCCCCCCCCCCCC(=O)O)C(=O)O)C(=O)N[C@@H](CC(N)=O)C(=O)N[C@@H]([C@@H](C)O)C(=O)N[C@@H](C)C(=O)N[C@@H]([C@@H](C)O)C(=O)N1)[C@@H](C)O)C(=O)N[C@@H](CC(C)C)C(=O)N1CCC[C@H]1C(=O)N1CCC[C@H]1C(=O)N[C@H](C(=O)N[C@@H](CC(N)=O)C(=O)N[C@H](C(=O)NCC(=O)N[C@@H](CO)C(=O)N[C@@H](CC(N)=O)C(=O)N[C@H](C(=O)N1C[C@H](O)C[C@H]1C(N)=O)[C@@H](C)O)C(C)C)[C@@H](C)O` [PD184] ({C20 diacid-AEEA-AEEA-βAsp}-KCNTATCATQRLADFLRHSSNNLKPILPPTNVGSNT[Hyp]-NH2; disulfide 2-7 (inferred)), the 50% effective concentration (EC50) turned out to be 0.037 nM.

Regarding `CC[C@H](C)[C@H](NC(=O)[C@@H]1CCCN1C(=O)[C@H](CCCCNC(=O)CC[C@H](NC(=O)CCCCCCCCCCCCCCCCCCC(=O)O)C(=O)O)NC(=O)[C@H](CC(C)C)NC(=O)[C@H](CC(N)=O)NC(=O)[C@H](CC(N)=O)NC(=O)[C@H](CO)NC(=O)[C@H](CO)NC(=O)[C@H](Cc1c[nH]cn1)NC(=O)[C@H](CCCNC(=N)N)NC(=O)[C@H](CC(C)C)NC(=O)[C@H](Cc1ccccc1)NC(=O)[C@H](CC(=O)O)NC(=O)[C@H](C)NC(=O)[C@H](CC(C)C)NC(=O)[C@H](CCCNC(=N)N)NC(=O)[C@H](CCC(N)=O)NC(=O)[C@@H](NC(=O)[C@H](C)NC(=O)[C@@H]1CSSC[C@H](NC(=O)[C@@H](N)CCCCNC(=N)N)C(=O)N[C@@H](CC(N)=O)C(=O)N[C@@H]([C@@H](C)O)C(=O)N[C@@H](C)C(=O)N[C@@H]([C@@H](C)O)C(=O)N1)[C@@H](C)O)C(=O)N[C@@H](CC(C)C)C(=O)N1CCC[C@H]1C(=O)N1CCC[C@H]1C(=O)N[C@H](C(=O)N[C@@H](CC(N)=O)C(=O)N[C@H](C(=O)NCC(=O)N[C@@H](CO)C(=O)N[C@@H](CC(N)=O)C(=O)N[C@H](C(=O)N1C[C@H](O)C[C@H]1C(N)=O)[C@@H](C)O)C(C)C)[C@@H](C)O` [PD077] (H-[hArg]CNTATCATQRLADFLRHSSNNLK([γGlu-C20 diacid])PILPPTNVGSNT[Hyp]-NH2; disulfide 2-7), the EC50 is 0.034 nM. In the case of `CC[C@H](C)[C@H](NC(=O)[C@@H]1CCCN1C(=O)[C@H](CCCCN)NC(=O)[C@H](CC(C)C)NC(=O)[C@H](CC(N)=O)NC(=O)[C@H](CC(N)=O)NC(=O)[C@H](CO)NC(=O)[C@H](CO)NC(=O)[C@H](Cc1c[nH]cn1)NC(=O)[C@H](CCCNC(=N)N)NC(=O)[C@H](CC(C)C)NC(=O)[C@H](Cc1ccccc1)NC(=O)[C@H](CC(=O)O)NC(=O)[C@H](C)NC(=O)[C@H](CC(C)C)NC(=O)[C@H](CCCNC(=N)N)NC(=O)[C@H](CCC(N)=O)NC(=O)[C@@H](NC(=O)[C@H](C)NC(=O)[C@@H]1CSSC[C@H](NC(=O)[C@H](CCCCN)NC(=O)CC[C@H](NC(=O)CCCCCCCCCCCCCCCCCCC(=O)O)C(=O)O)C(=O)N[C@@H](CC(N)=O)C(=O)N[C@@H]([C@@H](C)O)C(=O)N[C@@H](C)C(=O)N[C@@H]([C@@H](C)O)C(=O)N1)[C@@H](C)O)C(=O)N[C@@H](CC(C)C)C(=O)N1CCC[C@H]1C(=O)N1CCC[C@H]1C(=O)N[C@H](C(=O)N[C@@H](CC(N)=O)C(=O)N[C@H](C(=O)NCC(=O)N[C@@H](CO)C(=O)N[C@@H](CC(N)=O)C(=O)N[C@H](C(=O)N1C[C@H](O)C[C@H]1C(N)=O)[C@@H](C)O)C(C)C)[C@@H](C)O` [PD071] ({C20 diacid-γGlu}-KCNTATCATQRLADFLRHSSNNLKPILPPTNVGSNT[Hyp]-NH2; disulfide 2-7 (inferred)) it was 0.028 nM.
